The record followed here is US8853207B2 (Development Center for Biotechnology, priority 2012, dated 2014).

Common to all, as to assay type: biochemical
Assay [1] addresses C-kit kinase (recombinant N-terminal 6×His-tagged C-kit kinase domain) (Homo sapiens (Human), UniProt P10721). The assay is described as follows: C-kit kinase assay ([33P] incorporation into substrate). To be noted: 100 μM ATP, 30° C., 30 minutes. The protocol: Inhibition of C-kit kinase activity by compounds disclosed herein was quantified by measuring the amount of [^33P] incorporated into the substrate in the presence of a test compound. Briefly, a reaction mixture of 25 μL final volume containing 5 ng of C-kit kinase (obtained by purifying recombinant N-terminal 6×His-tagged C-kit kinase domain construct expressed from baculovirus), 5 μg of the substrate [Poly (Glu-Tyr, […], Sigma], kinase reaction buffer (8 mM MOPS/NaOH pH7.0, 0.2 mM EDTA, 10 mM MnCl2, 0.5% glycerol, 0.001% Brij-35, 0.01%, 2-mercaptoethanol, 0.1 mg/ml BSA, 100 μM ATP, 0.1 μCi per well [^33P]-γ-ATP (2,500-3,000 Ci/mmol)), and a test compound (diluted from 9 μM to the desired final concentration by 4% DMSO) or DMSO (as the control) was incubated at 30° C. for 30 minutes. The reaction was stopped by adding 5 μL of 3% phosphoric acid solution. The resultant solution (30 μL) was later harvested by a UniFilter Plate GF/B (PerkinElmer) followed by adding 30 μL of the scintillation cocktail (MicroScint 20, PerkinElmer) to the well. The radioactivity retained on the filter membrane was measured by a luminescence counter (PerkinElmer). The results were analyzed by using linear regression software (GraphPad Prism 4; GraphPad Software Inc.).

Assay [2] concerns the target FLT3 kinase (FLT3 kinase domain alone, Upstate) (Homo sapiens (Human), UniProt P36888). As to the kind of experiment: FLT3 kinase assay ([33P] incorporation into substrate). The note with it: 100 μM ATP, 30° C., 30 minutes; read-out: IC50 against FLT3. The method in brief:
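Reaction with 5 ng kinase domain, 5 μg poly(Glu-Tyr 4:1), 100 μM ATP plus [33P]-γ-ATP in pH 7.0 MOPS buffer, 30 min at 30 °C, DMSO control. Stopped with phosphoric acid; filter-bound radioactivity counted, data analysed by linear regression.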

Assay [3] deals with PDGFR-β kinase (recombinant N-terminal 6×His-tagged PDGFR-β kinase domain) (Homo sapiens (Human), UniProt P09619). As to the kind of experiment: PDGFR-β kinase assay ([33P] incorporation into substrate). The note with it: 30 nM ATP, 30° C., 30 minutes; read-out: IC50 (nM) PDGFRβ. As to the method: Inhibition of PDGFR-β kinase activity by compounds disclosed herein was quantified by measuring the amount of [^33P] incorporated into the substrate in the presence of a test compound. Briefly, a reaction mixture of 25 μL final volume containing 55 ng of PDGFR-β kinase (obtained by purifying recombinant N-terminal 6×His-tagged PDGFR-β kinase domain construct expressed by baculovirus), 2.5 μg of the substrate [Poly (Glu-Tyr, 4:1), Sigma], kinase reaction buffer (20 mM MOPS pH 7.0, 1 mM EDTA, 5% glycerol, 0.01% Brij-35, 0.1% β-mercaptoethanol, 1 mg/mL BSA, 2 mM MnCl2, 30 nM ATP, 0.1 μCi per well [^33P]-γ-ATP (2,500-3,000 Ci/mmol)), and a test compound (diluted from 9 μM to the desired final concentration by 4% DMSO) or DMSO (as the control) was incubated at 30° C. for 30 minutes. The reaction was stopped by adding 5 μL of 3% phosphoric acid solution. The resultant solution (30 μL) was later harvested by a UniFilter Plate GF/B (PerkinElmer) followed by adding 30 μL of the scintillation cocktail (MicroScint 20, PerkinElmer) to the well. The radioactivity retained on the filter membrane was measured by a luminescence counter (PerkinElmer). The results were analyzed by using linear regression software (GraphPad Prism 4; GraphPad Software Inc.).
Chain of PDGFR-β kinase (recombinant N-terminal 6×His-tagged PDGFR-β kinase domain) (P09619 600-962): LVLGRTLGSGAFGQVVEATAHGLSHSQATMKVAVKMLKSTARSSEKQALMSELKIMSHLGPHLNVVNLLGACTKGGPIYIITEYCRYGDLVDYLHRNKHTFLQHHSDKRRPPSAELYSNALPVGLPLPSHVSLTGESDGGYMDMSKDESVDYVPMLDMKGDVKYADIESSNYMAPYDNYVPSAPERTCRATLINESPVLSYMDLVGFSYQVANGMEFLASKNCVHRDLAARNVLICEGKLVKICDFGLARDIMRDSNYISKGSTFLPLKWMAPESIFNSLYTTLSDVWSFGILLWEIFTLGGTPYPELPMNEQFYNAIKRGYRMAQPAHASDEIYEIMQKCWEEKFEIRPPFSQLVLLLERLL

Chain of FLT3 kinase (FLT3 kinase domain alone, Upstate) (P36888 610-943): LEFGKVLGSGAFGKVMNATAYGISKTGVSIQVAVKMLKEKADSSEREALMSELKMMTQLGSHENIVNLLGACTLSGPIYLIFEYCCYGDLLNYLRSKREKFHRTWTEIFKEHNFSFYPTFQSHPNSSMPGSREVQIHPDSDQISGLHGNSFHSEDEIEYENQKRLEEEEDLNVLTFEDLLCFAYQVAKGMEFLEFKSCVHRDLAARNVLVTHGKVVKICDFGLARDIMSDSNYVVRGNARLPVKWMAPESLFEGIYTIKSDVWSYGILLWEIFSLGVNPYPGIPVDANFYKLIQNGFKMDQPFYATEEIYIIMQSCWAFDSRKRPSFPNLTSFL
Chain of C-kit kinase (recombinant N-terminal 6×His-tagged C-kit kinase domain) (P10721 589-937): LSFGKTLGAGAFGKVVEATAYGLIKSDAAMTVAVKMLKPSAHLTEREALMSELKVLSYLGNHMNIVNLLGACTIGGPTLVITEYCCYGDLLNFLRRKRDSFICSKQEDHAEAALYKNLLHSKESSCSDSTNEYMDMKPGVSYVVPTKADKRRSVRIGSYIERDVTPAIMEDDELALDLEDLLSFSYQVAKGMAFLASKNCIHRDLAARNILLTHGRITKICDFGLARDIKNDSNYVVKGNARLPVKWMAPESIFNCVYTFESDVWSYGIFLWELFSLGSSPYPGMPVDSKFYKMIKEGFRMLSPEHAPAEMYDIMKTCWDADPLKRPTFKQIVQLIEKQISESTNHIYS

`COc1ccc(-c2n[nH]c3c2Cc2sc(-c4ccncc4)cc2-3)cc1` [Example-69, 6-(4-Methoxy-phenyl)-2-pyridin-4-yl-4,7-dihydro-1-thia-4,5-diaza-cyclopenta[a]pentalene]: the IC50 in assay [1] was 22 nM; in assay [2] it was under 100 nM; in assay [3], 316 nM.

For `COc1ccc(-c2n[nH]c3c2Cc2sc(-c4ccc(N)nc4)cc2-3)cc1` [Example-78, 5-[6-(4-Methoxy-phenyl)-4,7-dihydro-1-thia-4,5-diaza-cyclopenta[a]pentalen-2-yl]-pyridin-2-ylamine], the IC50 in assay [1] is 27.5 nM; in assay [2] it was under 100 nM; in assay [3], 363 nM.

Regarding `COc1ccc(-c2n[nH]c3c2Cc2sc(-c4cccnc4)cc2-3)cc1` [Example-70, 6-(4-Methoxy-phenyl)-2-pyridin-3-yl-4,7-dihydro-1-thia-4,5-diaza-cyclopenta[a]pentalene], the figures for the IC50 in assay [1], in assay [2] and in assay [3] were 24.8 nM, under 100 nM and 479 nM, respectively.

On to `Oc1cccc(Nc2ccc(-c3n[nH]c4c3Cc3sccc3-4)cc2)c1` [Example-10, 3-[4-(4,7-Dihydro-1-thia-4,5-diaza-cyclopenta[a]pentalen-6-yl)-phenylamino]-phenol], for which the figures for the half-inhibitory concentration (IC50) in assay [1], in assay [2] and in assay [3] were 139 nM, under 100 nM and 118 nM, respectively.

By IC50 is commonly meant the midpoint of a concentration-inhibition curve.
